SMILES strings stand for the structures.

Experimental findings from patent US8163906B2, “Dihydroquinone and dihydronaphthridine inhibitors of JNK” (Roche Palo Alto, LLC, priority 2007, dated 2012) are described below.

Sequence of Human JNK1α1 (P45983 1-384 isoform P45983-2): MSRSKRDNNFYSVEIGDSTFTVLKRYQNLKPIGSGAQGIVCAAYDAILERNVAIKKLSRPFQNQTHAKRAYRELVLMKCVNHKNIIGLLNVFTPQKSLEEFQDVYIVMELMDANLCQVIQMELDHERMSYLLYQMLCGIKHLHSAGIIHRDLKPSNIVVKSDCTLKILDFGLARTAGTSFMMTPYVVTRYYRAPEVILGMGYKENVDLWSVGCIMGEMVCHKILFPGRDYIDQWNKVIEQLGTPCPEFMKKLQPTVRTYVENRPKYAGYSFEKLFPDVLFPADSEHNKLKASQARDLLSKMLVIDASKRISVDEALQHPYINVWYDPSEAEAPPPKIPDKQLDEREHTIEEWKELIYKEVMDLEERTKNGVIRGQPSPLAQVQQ

The first data set concerns the target Human JNK1α1 (Homo sapiens, UniProt P45983). Put plainly: JNK assay in vitro, phosphorylation of GST-ATF2 with [γ-33P] ATP (JNK1). It is filed as biochemical. The following applies: ATP at Km (6 μM), 1 μM ATF2, 30° C. 30 min; read-out: IC50 vs. JNK1. How it is done: (§1) JNK activity was measured by phosphorylation of GST-ATF2 (19-96) with [γ-^33P] ATP. […] Human JNK2α2 assay contains 1 nM enzyme, 1 μM ATF2, 8 μM ATP with 1 uCi [γ-^33P] ATP. Human JNK1α1 assay contains 2 nM enzyme, 1 μM ATF2, 6 μM ATP with 1 μCi [γ-^33P] ATP. […] ATP. The enzyme assay was carried out in the presence or absence of several compound concentrations. JNK and compound were pre-incubated for 10 min., followed by initiation of the enzymatic reaction by adding ATP and the substrate. The reaction mixture was incubated at 30° C. for 30 min. […] The incorporation of ^33P into ATF2 was quantified on a microplate scintillation counter (Packard Topcount). Compound inhibition potency on JNK was measured by IC50 value generated from ten concentration inhibition curves fitted into the 3-parameter model: % inhibition=Maximum/(1+(IC50/[Inhibitor])^slope). Data were analyzed on Microsoft Excel for parameter estimation.
With `COC(=O)c1c(Cc2ccc(S(=O)(=O)N3CCOCC3)cc2)c(=O)c2ccc(Cl)cc2n1-c1ccccc1` [Compound 31, 7-Chloro-3-[4-(morpholine-4-sulfonyl)-benzyl]-4-oxo-1-phenyl-1,4-dihydroquinoline-2-carboxylic acid methyl ester], the concentration for half-maximal inhibition (IC50) was 52.9 nM.

As to `CNS(=O)(=O)c1ccc(Cc2c(C(=O)OC)n(-c3ccccc3)c3cc(Cl)ccc3c2=O)cc1` [Compound 44, 7-Chloro-3-(4-methylsulfamoyl-benzyl)-4-oxo-1-phenyl-1,4-dihydroquinoline-2-carboxylic acid methyl ester], the IC50 was determined as 49.1 nM.

For the compound `COC(=O)c1c(Cc2ccc(S(=O)(=O)NCC(O)CO)cc2)c(=O)c2ccc(Cl)cc2n1-c1ccccc1` (stereo not shown) [Compound 46, 7-chloro-3-[4-(2,3-dihydroxy-propylsulfamoyl)-benzyl]-4-oxo-1-phenyl-1,4-dihydroquinoline-2-carboxylic acid methyl ester], the IC50 was found to be 45.4 nM.

Consider `COC(=O)c1c(Cc2ccc(S(=O)(=O)N(C)CCO)cc2)c(=O)c2ccc(Cl)cc2n1-c1ccccc1` [Compound 59, 7-Chloro-3-{4-[(2-hydroxyethyl)-methyl-sulfamoyl]-benzyl}-4-oxo-1-phenyl-1,4-dihydroquinoline-2-carboxylic acid methyl ester], for which the IC50 was 22.6 nM.

Consider `COC(=O)c1c(Cc2ccc(S(=O)(=O)NCCO[Si](C)(C)C(C)(C)C)cc2)c(=O)c2ccc(Cl)cc2n1-c1ccccc1` [Compound 60, 3-{4-[2-(tert-Butyl-dimethyl-silanyloxy)-ethylsulfamoyl]-benzyl}-7-chloro-4-oxo-1-phenyl-1,4-dihydroquinoline-2-carboxylic acid methyl ester], for which the IC50 turned out to be 1630 nM.

Consider `COC(=O)c1c(Cc2ccc(S(=O)(=O)N3CCN(C(=O)OC(C)(C)C)CC3)cc2)c(=O)c2ccc(Cl)cc2n1-c1ccccc1` [Compound 63, 3-[4-(4-tert-Butoxycarbonyl-piperazine-1-sulfonyl)-benzyl]-7-chloro-4-oxo-1-phenyl-1,4-dihydroquinoline-2-carboxylic acid methyl ester], for which the IC50 amounted to 98.7 nM.

System in the next data set: not given
Test: not given
Settings: not given
`COC(=O)c1c(Cc2ccc(S(=O)(=O)N3CCNCC3)cc2)c(=O)c2ccc(F)cc2n1-c1ccccc1.Cl` displayed a melting point of 214 to 215 °C.

`COC(=O)c1c(Cc2ccc(S(=O)(=O)N3CCNCC3(C)C)cc2)c(=O)c2ccc(F)cc2n1-c1ccccc1.Cl` registered a melting point of 211 to 212 °C.

For `COC(=O)c1c(Cc2ccc(Cl)nc2)c(=O)c2ccc(C)nc2n1-c1ccccc1` [Compound 83, 3-(6-chloro-pyridin-3-ylmethyl)-7-methyl-4-oxo-1-phenyl-1,4-dihydro[1,8]naphthyridine-2-carboxylic acid methyl ester], the melting point was 220 to 220.5 °C.

With `COC(=O)c1c(Cc2ccc(C(=O)CBr)cc2)c(=O)c2ccc(C)nc2n1-c1ccccc1` [Compound 89, 3-[4-(2-bromoacetyl)-benzyl]-7-methyl-4-oxo-1-phenyl-1,4-dihydro-[1,8]naphthyridine-2-carboxylic acid methyl ester], the melting point was in the range of 189 to 191.1 °C.

Regarding `COC(=O)c1c(Cc2ccc(S(C)(=O)=O)nc2)c(=O)c2ccc(C)nc2n1-c1ccccc1` [Compound 92, 3-(6-Methanesulfonyl-pyridin-3-ylmethyl)-7-methyl-4-oxo-1-phenyl-1,4-dihydro[1,8]naphthyridine-2-carboxylic Acid Methyl Ester], the melting point was 217 to 218 °C.

With `COC(=O)c1ccc(Cc2c(C(=O)OC)n(-c3ccccc3)c3nc(C)ccc3c2=O)cn1` [Compound 100, 3-(6-Methoxycarbonyl-pyridin-3-ylmethyl)-7-methyl-4-oxo-1-phenyl-1,4-dihydro[1,8]naphthyridine-2-carboxylic Acid Methyl Ester], the melting point is 177 to 178 °C.

Regarding `CCNC(=O)c1ccc(Cc2c(C(=O)OC)n(-c3ccccc3)c3nc(C)ccc3c2=O)cn1` [Compound 101, 3-(6-Ethylcarbamoyl-pyridin-3-ylmethyl)-7-methyl-4-oxo-1-phenyl-1,4-dihydro[1,8]naphthyridine-2-carboxylic Acid Methyl Ester], the melting point was 208 to 209 °C.

Regarding `COC(=O)c1c(Cc2ccc(OC)nc2)c(=O)c2ccc(C)nc2n1-c1ccccc1` [Compound 102, 3-(6-Methoxypyridin-3-ylmethyl)-7-methyl-4-oxo-1-phenyl-1,4-dihydro[1,8]naphthridine-2-carboxylic Acid Methyl Ester], the melting point lay in the range of 176 to 177 °C.

Consider `COC(=O)c1c(Cc2ccc(C(=O)N(C)C)nc2)c(=O)c2ccc(C)nc2n1-c1ccccc1` [Compound 103, 3-(6-Dimethylcarbamoyl-pyridin-3-ylmethyl)-7-methyl-4-oxo-1-phenyl-1,4-dihydro[1,8]naphthyridine-2-carboxylic Acid Methyl Ester], for which the melting point lay within 235 to 236 °C.

Take `COC(=O)c1c(Cc2ccc(S(=O)(=O)N3CCN(C(=O)OC(C)(C)C)CC3)cc2)c(=O)c2ccc(F)cc2n1-c1ccccc1` [Compound 108]: the melting point was in the range of 120 to 121 °C.

The compound `COC(=O)c1c(Cc2ccc(SCCO)cc2)c(=O)c2ccc(F)cc2n1-c1ccccc1` [Compound 111] yielded a melting point of 163 to 164 °C.

`COC(=O)c1c(Cc2ccc(S(=O)(=O)CCO)cc2)c(=O)c2ccc(F)cc2n1-c1ccccc1` [Compound 112] returned a melting point of 165 to 166 °C.

Turning to `COC(=O)c1c(Cc2ccc(S(=O)(=O)N3CCN(C(=O)OC(C)(C)C)CC3(C)C)cc2)c(=O)c2ccc(F)cc2n1-c1ccccc1` [Compound 113], the melting point was 116 to 117 °C.

With `COC(=O)c1c(Cc2ccc(S(C)(=O)=O)cc2)c(=O)c2ccc(C(F)(F)F)nc2n1-c1ccccc1` [Compound 115], the melting point is 193 to 195 °C.

`COC(=O)c1c(Cc2ccc(C(=O)NCCO)cc2)c(=O)c2ccc(C(F)(F)F)nc2n1-c1ccccc1` [Compound 116] had a melting point of 170 to 173 °C.

In the case of `COC(=O)c1c(Cc2ccc(S(=O)(=O)C(C)CO)cc2)c(=O)c2ccc(F)cc2n1-c1ccccc1` (stereo not shown) [Compound 118], the melting point was 193.6 to 194.9 °C.

`COC(=O)c1c(Cc2ccc(S(=O)(=O)C(C)CO)cc2)c(=O)c2ccc(C)nc2n1-c1ccccc1` (stereo not shown) [Compound 119] returned a melting point of 195.9 to 197.2 °C.

Compound `COC(=O)c1c(Cc2ccccc2)c(=O)c2ccc(Cl)cc2n1-c1ccccc1` [Compound 120] showed a melting point of 200 to 201 °C.

As for `CCOC(=O)c1c(Cc2ccccc2)c(=O)c2ccc(Cl)cc2n1-c1ccccc1` [Compound 121], the melting point was 179 to 180 °C.

`COC(=O)c1c(CN2CCOCC2)c(=O)c2ccc(F)cc2n1-c1ccccc1` [Compound 123] returned a melting point of 169 to 170 °C.

Consider `COC(=O)c1c(Cc2ccc(C#N)cc2)c(=O)c2ccc(F)cc2n1-c1ccccc1` [Compound 124], for which the melting point is 218 to 219 °C.

Compound `COC(=O)c1c(Cc2cnc(OC)nc2)c(=O)c2ccc(F)cc2n1-c1ccccc1` [Compound 125] came in with a melting point of 206 to 207 °C.

In the case of `COC(=O)c1c(CN2CCC(S(C)(=O)=O)CC2)c(=O)c2ccc(F)cc2n1-c1ccccc1` [Compound 126, 7-fluoro-3-(4-methanesulfonyl-piperidin-1-ylmethyl)-4-oxo-1-phenyl-1,4-dihydro-quinoline-2-carboxylic acid methyl ester], the melting point lay in the range of 190 to 191 °C.

As for `COCCOC(=O)c1c(Cc2ccccc2)c(=O)c2ccc(F)cc2n1-c1ccccc1` [Compound 130, 3-Benzyl-7-fluoro-4-oxo-1-phenyl-1,4-dihydro-quinoline-2-carboxylic acid 2-methoxy-ethyl ester], the melting point fell in the range of 168 to 169 °C.

As for `COC(=O)c1c(CN2CCN(S(C)(=O)=O)CC2)c(=O)c2ccc(F)cc2n1-c1ccccc1` [Compound 131], the melting point lay within 205 to 207 °C.

`COC(=O)c1c(CN2CCS(=O)(=O)CC2)c(=O)c2ccc(F)cc2n1-c1ccccc1` [Compound 132] came in with a melting point of 119 to 120 °C.

`CCOC(=O)C1CCN(Cc2c(C(=O)OC)n(-c3ccccc3)c3cc(F)ccc3c2=O)CC1` [Compound 133] returned a melting point of 136 to 137 °C.

The compound `COC(=O)c1c(CN2CCn3c(nnc3C(F)(F)F)C2)c(=O)c2ccc(F)cc2n1-c1ccccc1` [Compound 134] gave a melting point of 107 to 110 °C.

`COC(=O)c1c(CN2CCC(C#N)CC2)c(=O)c2ccc(F)cc2n1-c1ccccc1` [Compound 136]: the melting point fell in the range of 159 to 160 °C.

Take `C=CCn1c(C(=O)OC)c(Cc2ccc(S(C)(=O)=O)cc2)c(=O)c2ccc(C)nc21` [Compound 139]: the melting point lay within 168 to 169 °C.

Turning to `O=c1c(Cc2ccccc2)c(-c2ncco2)n(-c2ccccc2)c2cc(Cl)ccc12` [Compound 140, 3-benzyl-7-chloro-2-oxazol-2-yl-1-phenyl-1H-quinolin-4-one], the melting point is 219 to 220 °C.

In the next data set the target is Human JNK2α2 (Homo sapiens, UniProt P45984). Put plainly: JNK assay in vitro, phosphorylation of GST-ATF2 with [γ-33P] ATP (JNK2). The class given is biochemical. The conditions noted are these: ATP at Km (8 μM), 1 μM ATF2, 30° C. 30 min. How it is done: as §1
Sequence of Human JNK2α2 (P45984 whole entry): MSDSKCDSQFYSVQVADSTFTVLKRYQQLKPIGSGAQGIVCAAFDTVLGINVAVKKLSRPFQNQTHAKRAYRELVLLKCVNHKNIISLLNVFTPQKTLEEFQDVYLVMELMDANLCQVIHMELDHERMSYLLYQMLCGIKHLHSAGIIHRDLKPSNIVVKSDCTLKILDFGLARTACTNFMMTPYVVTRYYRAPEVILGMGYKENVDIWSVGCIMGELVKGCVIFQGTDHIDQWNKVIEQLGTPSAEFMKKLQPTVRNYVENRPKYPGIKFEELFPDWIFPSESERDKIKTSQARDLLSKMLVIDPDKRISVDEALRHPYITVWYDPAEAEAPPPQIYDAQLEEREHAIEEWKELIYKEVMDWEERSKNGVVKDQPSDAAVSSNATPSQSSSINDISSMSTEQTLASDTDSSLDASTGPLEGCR
`COC(=O)c1c(Cc2ccc(S(=O)(=O)N3CCOCC3)cc2)c(=O)c2ccc(Cl)cc2n1-c1ccccc1` [Compound 31, 7-Chloro-3-[4-(morpholine-4-sulfonyl)-benzyl]-4-oxo-1-phenyl-1,4-dihydroquinoline-2-carboxylic acid methyl ester] gave an IC50 of 161 nM.

Regarding `COC(=O)c1c(Cc2ccc(S(=O)(=O)NCC(O)CO)cc2)c(=O)c2ccc(Cl)cc2n1-c1ccccc1` (stereo not shown) [Compound 46, 7-chloro-3-[4-(2,3-dihydroxy-propylsulfamoyl)-benzyl]-4-oxo-1-phenyl-1,4-dihydroquinoline-2-carboxylic acid methyl ester], the IC50 was 137 nM.

For the compound `COC(=O)c1c(Cc2ccc(S(=O)(=O)N(C)CCO)cc2)c(=O)c2ccc(Cl)cc2n1-c1ccccc1` [Compound 59, 7-Chloro-3-{4-[(2-hydroxyethyl)-methyl-sulfamoyl]-benzyl}-4-oxo-1-phenyl-1,4-dihydroquinoline-2-carboxylic acid methyl ester], it took 61.4 nM to reach half-maximal inhibition (IC50).

`COC(=O)c1c(Cc2ccc(S(=O)(=O)NCCO[Si](C)(C)C(C)(C)C)cc2)c(=O)c2ccc(Cl)cc2n1-c1ccccc1` [Compound 60, 3-{4-[2-(tert-Butyl-dimethyl-silanyloxy)-ethylsulfamoyl]-benzyl}-7-chloro-4-oxo-1-phenyl-1,4-dihydroquinoline-2-carboxylic acid methyl ester] gave a half-inhibitory concentration (IC50) of 4980 nM.

`COC(=O)c1c(Cc2ccc(S(=O)(=O)N3CCN(C(=O)OC(C)(C)C)CC3)cc2)c(=O)c2ccc(Cl)cc2n1-c1ccccc1` [Compound 63, 3-[4-(4-tert-Butoxycarbonyl-piperazine-1-sulfonyl)-benzyl]-7-chloro-4-oxo-1-phenyl-1,4-dihydroquinoline-2-carboxylic acid methyl ester]: the IC50 was 212 nM.

`COC(=O)c1ccc(Cc2c(C(=O)OC)n(-c3ccccc3)c3nc(C)ccc3c2=O)cn1` [Compound 100, 3-(6-Methoxycarbonyl-pyridin-3-ylmethyl)-7-methyl-4-oxo-1-phenyl-1,4-dihydro[1,8]naphthyridine-2-carboxylic Acid Methyl Ester] yielded an IC50 of 226 nM.

What is called IC50 is the concentration that gives 50% inhibition. A word on the melting point: it is the temperature, or range, at which the solid turns liquid.
